Results reported in PubChem BioAssay AID1259407 (Chemical Carcinogenesis Research Information System (CCRIS), 2018).
Activity calls are given as the source filed them. How the calls were made is not given here.

System: CCRIS mutagenicity, Ames/micronucleus/aberration tests
Test: CCRIS mutagenicity studies
[1] = Test System: AMES SALMONELLA TYPHIMURIUM, Strain/Indicator: TA98, Metabolic Activation: HAMSTER, LIVER, S-9, AROCLOR 1254 (10%), Method: PREINCUBATION
[2] = Test System: AMES SALMONELLA TYPHIMURIUM, Strain/Indicator: TA98, Metabolic Activation: NONE, Method: PREINCUBATION
[3] = Test System: AMES SALMONELLA TYPHIMURIUM, Strain/Indicator: TA98, Metabolic Activation: RAT, LIVER, S-9, AROCLOR 1254 (10%), Method: PREINCUBATION
[4] = Test System: AMES SALMONELLA TYPHIMURIUM, Strain/Indicator: TA100, Metabolic Activation: HAMSTER, LIVER, S-9, AROCLOR 1254 (10%), Method: PREINCUBATION
[5] = Test System: AMES SALMONELLA TYPHIMURIUM, Strain/Indicator: TA100, Metabolic Activation: NONE, Method: PREINCUBATION
[6] = Test System: AMES SALMONELLA TYPHIMURIUM, Strain/Indicator: TA100, Metabolic Activation: RAT, LIVER, S-9, AROCLOR 1254 (10%), Method: PREINCUBATION
[7] = Test System: AMES SALMONELLA TYPHIMURIUM, Strain/Indicator: TA1535, Metabolic Activation: HAMSTER, LIVER, S-9, AROCLOR 1254 (10%), Method: PREINCUBATION
[8] = Test System: AMES SALMONELLA TYPHIMURIUM, Strain/Indicator: TA1535, Metabolic Activation: NONE, Method: PREINCUBATION
[9] = Test System: AMES SALMONELLA TYPHIMURIUM, Strain/Indicator: TA1535, Metabolic Activation: RAT, LIVER, S-9, AROCLOR 1254 (10%), Method: PREINCUBATION
[10] = Test System: AMES SALMONELLA TYPHIMURIUM, Strain/Indicator: TA1537, Metabolic Activation: HAMSTER, LIVER, S-9, AROCLOR 1254 (10%), Method: PREINCUBATION
[11] = Test System: AMES SALMONELLA TYPHIMURIUM, Strain/Indicator: TA1537, Metabolic Activation: NONE, Method: PREINCUBATION
[12] = Test System: AMES SALMONELLA TYPHIMURIUM, Strain/Indicator: TA1537, Metabolic Activation: RAT, LIVER, S-9, AROCLOR 1254 (10%), Method: PREINCUBATION
[13] = Test System: AMES SALMONELLA TYPHIMURIUM, Strain/Indicator: TA100, Metabolic Activation: NONE, Method: STANDARD PLATE
[14] = Test System: AMES SALMONELLA TYPHIMURIUM, Strain/Indicator: TA98, Metabolic Activation: NONE, Method: STANDARD PLATE

## O=C1[O][Bi][O]c2ccccc21
[1]
  mutagenic call: inactive; negative
[2]
  mutagenic call: inactive; negative
[3]
  mutagenic call: inactive; negative
[4]
  mutagenic call: inactive; negative
[5]
  mutagenic call: inactive; negative
[6]
  mutagenic call: inactive; negative
[7]
  mutagenic call: inactive; negative
[8]
  mutagenic call: inactive; negative
[9]
  mutagenic call: inactive; negative
[10]
  mutagenic call: inactive; negative
[11]
  mutagenic call: inactive; negative
[12]
  mutagenic call: inactive; negative

## Cc1ccc2ccc3c4ccccc4ccc3c2c1
Test System: AMES SALMONELLA TYPHIMURIUM, Strain/Indicator: TA100, Metabolic Activation: RAT, LIVER, MICROSOMES, 3-METHYLCHRYSENE, Method: STANDARD PLATE
  mutagenic call: inactive; negative
Test System: AMES SALMONELLA TYPHIMURIUM, Strain/Indicator: TA100, Metabolic Activation: RAT, LIVER, MICROSOMES, AROCLOR 1254, Method: STANDARD PLATE
  mutagenic call: active; positive
Test System: AMES SALMONELLA TYPHIMURIUM, Strain/Indicator: TA100, Metabolic Activation: RAT, LIVER, MICROSOMES, Method: STANDARD PLATE
  mutagenic call: inactive; negative

## O=[N+]([O-])c1ccc2sncc2c1
[13]
  mutagenic call: active; positive

## CN1C[C@H](C(=O)N[C@]2(C)O[C@@]3(O)[C@@H]4CCCN4C(=O)[C@H](Cc4ccccc4)N3C2=O)C=C2c3cccc4[nH]cc(c34)C[C@H]21
[1]
  mutagenic call: inactive; negative
Test System: AMES SALMONELLA TYPHIMURIUM, Strain/Indicator: TA98, Metabolic Activation: HAMSTER, LIVER, S-9, AROCLOR 1254, Method: STANDARD PLATE
  mutagenic call: inactive; negative
[2]
  mutagenic call: inactive; negative
[14]
  mutagenic call: inactive; negative
[3]
  mutagenic call: inactive; negative
Test System: AMES SALMONELLA TYPHIMURIUM, Strain/Indicator: TA98, Metabolic Activation: RAT, LIVER, S-9, AROCLOR 1254, Method: STANDARD PLATE
  mutagenic call: inactive; negative
[4]
  mutagenic call: inactive; negative
Test System: AMES SALMONELLA TYPHIMURIUM, Strain/Indicator: TA100, Metabolic Activation: HAMSTER, LIVER, S-9, AROCLOR 1254, Method: STANDARD PLATE
  mutagenic call: inactive; negative
[5]
  mutagenic call: inactive; negative
[13]
  mutagenic call: inactive; negative
[6]
  mutagenic call: inactive; negative
Test System: AMES SALMONELLA TYPHIMURIUM, Strain/Indicator: TA100, Metabolic Activation: RAT, LIVER, S-9, AROCLOR 1254, Method: STANDARD PLATE
  mutagenic call: inactive; negative
[7]
  mutagenic call: inactive; negative
Test System: AMES SALMONELLA TYPHIMURIUM, Strain/Indicator: TA1535, Metabolic Activation: HAMSTER, LIVER, S-9, AROCLOR 1254, Method: STANDARD PLATE
  mutagenic call: inactive; negative
[8]
  mutagenic call: inactive; negative
Test System: AMES SALMONELLA TYPHIMURIUM, Strain/Indicator: TA1535, Metabolic Activation: NONE, Method: STANDARD PLATE
  mutagenic call: inactive; negative
[9]
  mutagenic call: inactive; negative
Test System: AMES SALMONELLA TYPHIMURIUM, Strain/Indicator: TA1535, Metabolic Activation: RAT, LIVER, S-9, AROCLOR 1254, Method: STANDARD PLATE
  mutagenic call: inactive; negative
[10]
  mutagenic call: inactive; negative
Test System: AMES SALMONELLA TYPHIMURIUM, Strain/Indicator: TA1537, Metabolic Activation: HAMSTER, LIVER, S-9, AROCLOR 1254, Method: STANDARD PLATE
  mutagenic call: inactive; negative
[11]
  mutagenic call: inactive; negative
Test System: AMES SALMONELLA TYPHIMURIUM, Strain/Indicator: TA1537, Metabolic Activation: NONE, Method: STANDARD PLATE
  mutagenic call: inactive; negative
[12]
  mutagenic call: inactive; negative
Test System: AMES SALMONELLA TYPHIMURIUM, Strain/Indicator: TA1537, Metabolic Activation: RAT, LIVER, S-9, AROCLOR 1254, Method: STANDARD PLATE
  mutagenic call: inactive; negative
Test System: MOUSE LYMPHOMA, Strain/Indicator: L5178Y (TK+/TK-), Metabolic Activation: NONE, Method: SUSPENSION/PLATE
  mutagenic call: inactive; negative
Test System: MOUSE LYMPHOMA, Strain/Indicator: L5178Y (TK+/TK-), Metabolic Activation: RAT, LIVER, S-9, AROCLOR 1254, Method: SUSPENSION/PLATE
  mutagenic call: inactive; negative
Test System: Mouse lymphoma, Strain/Indicator: L5178Y (tk+/tk-), Metabolic Activation: None, Method: Suspension/plate
  mutagenic call: inactive; negative
Test System: Mouse lymphoma, Strain/Indicator: L5178Y (tk+/tk-), Metabolic Activation: Rat, Liver, S-9, Aroclor 1254, Method: Suspension/plate
  mutagenic call: inactive; negative

## CCOP(=S)(OCC)SCCl
Test System: AMES SALMONELLA TYPHIMURIUM, Strain/Indicator: TA98, Metabolic Activation: NONE
  mutagenic call: inactive; negative
[14]
  mutagenic call: inactive; negative
Test System: AMES SALMONELLA TYPHIMURIUM, Strain/Indicator: TA98, Metabolic Activation: RAT, LIVER, S-9, SODIUM PHENOBARBITAL, Method: STANDARD PLATE
  mutagenic call: inactive; negative
Test System: AMES SALMONELLA TYPHIMURIUM, Strain/Indicator: TA98, Metabolic Activation: S-9
  mutagenic call: inactive; negative
Test System: AMES SALMONELLA TYPHIMURIUM, Strain/Indicator: TA100, Metabolic Activation: NONE
  mutagenic call: inactive; negative
[13]
  mutagenic call: inactive; negative
Test System: AMES SALMONELLA TYPHIMURIUM, Strain/Indicator: TA100, Metabolic Activation: RAT, LIVER, S-9, SODIUM PHENOBARBITAL, Method: STANDARD PLATE
  mutagenic call: inactive; negative
Test System: AMES SALMONELLA TYPHIMURIUM, Strain/Indicator: TA100, Metabolic Activation: S-9
  mutagenic call: inactive; negative
Test System: E. COLI, Strain/Indicator: WP2, Metabolic Activation: NONE
  mutagenic call: inactive; negative
Test System: E. COLI, Strain/Indicator: WP2, Metabolic Activation: RAT, LIVER, S-9, SODIUM PHENOBARBITAL, Method: STANDARD PLATE
  mutagenic call: inactive; negative
Test System: E. COLI, Strain/Indicator: WP2, Metabolic Activation: S-9
  mutagenic call: inactive; negative
Test System: E. COLI, Strain/Indicator: WP2 UVRA, Metabolic Activation: NONE
  mutagenic call: inactive; negative
Test System: E. COLI, Strain/Indicator: WP2 UVRA, Metabolic Activation: RAT, LIVER, S-9, SODIUM PHENOBARBITAL, Method: STANDARD PLATE
  mutagenic call: inactive; negative
Test System: E. COLI, Strain/Indicator: WP2 UVRA, Metabolic Activation: S-9
  mutagenic call: inactive; negative

## CC(=O)OC/C=C(\C)CCC=C(C)C
End Point: IN VITRO CHROMOSOMAL ABERRATIONS, Test System: CHINESE HAMSTER OVARY CELLS, Metabolic Activation: NONE
  mutagenic call: inactive; negative; precipitation occurred at 100 ug/ml
End Point: IN VITRO CHROMOSOMAL ABERRATIONS, Test System: CHINESE HAMSTER OVARY CELLS, Metabolic Activation: RAT, LIVER, S-9, AROCLOR 1254
  mutagenic call: inactive; negative; precipitation occurred at 150 ug/ml
